Here are results for ten compounds from patent US20080045514A1 (Cytovia, Inc., priority 2006, published 2008).

Assay type in all cases: cell-based
For experiment [1], the system named is human leukemia cell line K562. The experiment can be described thus: Inhibition of cell proliferation (GI50), K562. The note with it: Homo sapiens; K562 cells, 48 h, CellTiter-Glo. The method, then: (§1) Human breast cancer cell lines T-47D, human hepatocellular carcinoma cell line SNU398, human colon carcinoma cell line HCT116, human lung cancer cell line H1299, human leukemia cell line K562, human lymphoma cell line Raji, human B cell lymphoblastoid cell line Ramos, and human Burkitt's lymphoma cell line Namalwa were grown and harvested as in Example 100. An aliquot of […] of cells (4.4×10^4 cells/mL) was added to a well of a 96-well microtiter plate containing 5 μL of a 10% DMSO in RPMI-1640 media solution containing 10 nM to 100 μM of 3-(2-chlorophenyl)-6-(3,4-methylenedioxyphenyl)-7H-[1,2,4]triazolo[3,4-b][1,3,4]thiadiazine (1 nM to 10 μM final). An aliquot of 45 μL of cells was added to a well of a 96-well microtiter plate containing 5 μL of a 10% DMSO in RPMI-1640 media solution without compound as the control sample for maximal cell proliferation (LMax). The samples were mixed by agitation and then incubated at 37° C. for 48 h in a 5% CO2-95% humidity incubator. After incubation, the samples were removed from the incubator and 25 μL of CellTiter-Glo™ reagent (Promega) was added. The samples were mixed by agitation and incubated at room temperature for 10-15 min. Plates were then read using a luminescent plate reader (Model SPECTRAfluor Plus, Tecan) to give Ltest values.
(§2) The samples were mixed by agitation and then incubated at 37° C. for 0.5 h in a 5% CO2-95% humidity incubator. After incubation, the samples were removed from the incubator and 25 μL of CellTiter-Glo™ reagent (Promega) was added. The samples were mixed by agitation and incubated at […] 10-15 min at room temperature in a 5% CO2-95% humidity incubator. Fluorescence was read as above, (LStart) defining luminescence for initial cell number used as baseline in GI50 determinations.
(§3) Calculation: GI50 (dose for 50% inhibition of cell proliferation) is the concentration where [(Ltest−LStart)/(LMax−LStart)]=0.5.
On the technique in general: ATP-based viability assays read luminescence as a measure of living cells.

The test system of experiment [2] is human hepatocellular carcinoma cell line SNU398. The experiment can be described thus: Caspase cascade activation (EC50), SNU398. The note with it: Homo sapiens, SNU-398; SNU398 cells; caspase cascade activation; read-out: caspase potency (EC50) SNU398. The gist of the method: (§4)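 Cells in ATCC medium plus 10% FCS, seeded at 0.65×10^6 cells/mL, incubated with compound at 0.016 to 10 μM final, 48 h, 37 °C. Lysis-substrate buffer (14 μM DEVD-R110, 20 mM DTT, pH 7.2, lysolecithin) added; fluorescence read after 3 h at room temperature.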

Experiment [3] has as its system human B cell lymphoblastoid cell line Ramos. The experiment can be described thus: Inhibition of cell proliferation (GI50), Ramos. As to conditions: Homo sapiens; Ramos cells, 48 h, CellTiter-Glo. The method, then: as §1, §2, §3
For experiment [4] the test system is unchanged. The experiment can be described thus: Caspase cascade activation (EC50), Ramos. As to conditions: Homo sapiens, RAMOS cells, read-out: caspase potency (EC50) RAMOS. The gist of the method:
as §4

Experiment [5] deals with human Burkitt's lymphoma cell line Namalwa. The experiment can be described thus: Caspase cascade activation (EC50), Namalwa. The note with it: Homo sapiens, Burkitts lymphoma cell; Namalwa cells; caspase cascade activation; read-out: caspase potency (EC50) Namalwa. The gist of the method: as §4
Experiment [6] deals with human colon carcinoma cell line HCT116. The experiment is described as follows: Caspase cascade activation (EC50), HCT116. As to conditions: Homo sapiens, HCT-116; HCT116 cells; caspase cascade activation; read-out: caspase potency (EC50) HCT116. Put shortly:
as §4

Experiment [7] relates to human breast cancer cell line T-47D. The experiment can be described thus: Caspase cascade activation (EC50), T-47D. As to conditions: Homo sapiens; T47D cells; caspase cascade activation; read-out: caspase potency (EC50) T47D. Put shortly:
as §4

The subject of experiment [8] is human lymphoma cell line Raji. The experiment is described as follows: Caspase cascade activation (EC50), Raji. The note with it: Homo sapiens, RAJI cells, read-out: caspase potency (EC50) RAJI. The gist of the method:
as §4

Experiment [9] deals with human lymphoma cell line Raji. The experiment can be described thus: Inhibition of cell proliferation (GI50), Raji. The note with it: Homo sapiens; Raji cells, 48 h, CellTiter-Glo. The method, then: as §1, §2, §3
Experiment [10] has as its system human Burkitt's lymphoma cell line Namalwa. The experiment is described as follows: Inhibition of cell proliferation (GI50), Namalwa. As to conditions: Homo sapiens, Burkitts lymphoma cell; Namalwa cells, 48 h, CellTiter-Glo. As to the method:
as §1, §2, §3

Experiment [11] concerns human colon carcinoma cell line HCT116. The experiment is described as follows: Inhibition of cell proliferation (GI50), HCT116. As to conditions: Homo sapiens; HCT 116 cells, 48 h, CellTiter-Glo. As to the method: as §1, §2, §3
In experiment [12] the test system is human cancer cell line H1299. The experiment is described as follows: Caspase cascade activation (EC50), H1299. The note with it: NCI-H1299, H1299 cells, read-out: caspase potency (EC50) H1299. The method, then: Human breast cancer cell lines T-47D, human hepatocellular carcinoma cell line SNU398, human colon carcinoma cell line HCT116, human cancer cell line H1299, human Burkitt's lymphoma cell line Namalwa, human lymphoma cell line Raji, and human B cell lymphoblastoid cell line Ramos were grown according to media component mixtures designated by American Type Culture Collection+10% FCS (Invitrogen Corporation), in a 5% CO2-95% humidity incubator at 37° C. T-47D and H1299 cells were maintained at a cell density between 50 and 80% confluency at a cell density of 0.1 to 0.6×10^6 cells/mL. Cells were harvested at 600×g and resuspended at 0.65×10^6 cells/mL into appropriate media+10% FCS. An aliquot of 22.5 μL of cells was added to a well of a 384-well microtiter plate containing 2.5 μL of a 10% DMSO in RPMI-1640 media solution containing 0.16 to 100 μM of 3-(2-chlorophenyl)-6-(3,4-methylenedioxyphenyl)-7H-[1,2,4]triazolo[3,4-b][1,3,4]thiadiazine or other test compound (0.016 to 10 μM final). An aliquot of 22.5 μL of cells was added to a well of a 384-well microtiter plate containing 2.5 μL of a 10% DMSO in RPMI-1640 media solution without test compound as the control sample. The samples were mixed by agitation and then incubated at 37° C. for 48 h in a 5% CO2-95% humidity incubator. After incubation, the samples were removed from the incubator and 25 μL of a solution containing 14 μM of N—(Ac-DEVD)-N′-ethoxycarbonyl-R110 (SEQ ID No.:1) fluorogenic substrate (Cytovia, Inc.; WO99/18856), 20% sucrose (Sigma), 20 mM DTT (Sigma), 200 mM NaCl (Sigma), 40 mM Na PIPES buffer pH 7.2 (Sigma), and 500 μg/mL lysolecithin (Calbiochem) was added. The samples were mixed by agitation and incubated at room temperature. Using a fluorescent plate reader (Model SPECTRAfluor Plus, Tecan), an initial reading (T=0) was made approximately 1-2 min after addition of the substrate solution, employing excitation at 485 nm and emission at 530 nm, to determine the background fluorescence of the control sample. After the 3 h incubation, the samples were read for fluorescence as above (T=3 h). Calculation: The Relative Fluorescence Unit values (RFU) were used to calculate the sample readings as follows: RFU(T=3H)−Control RFU(T=0)=Net RFU(T=3h) The activity of caspase cascade activation was determined by the ratio of the net RFU value for 3-(2-chlorophenyl)-6-(3,4-methylenedioxyphenyl)-7H-[1,2,4]triazolo[3,4-b][1,3,4]thiadiazine (Example P) or other test compound to that of control samples. The EC50 (nM) was determined by a sigmoidal dose-response calculation (Prism 3.0, GraphPad Software Inc.).

pEC50: −log10 of the molar value.

Consider `COc1ccc(C2=Nn3c(nnc3-c3ccccc3C)SC2)cc1` [Example N2, 3-(2-Methylphenyl)-6-(4-methoxyphenyl)-7H-[1,2,4]triazolo[3,4-b][1,3,4]thiadiazine], for which the GI50 in experiment [1] was 38 nM; in [3] it was 13 nM; in experiment [9] it was 164 nM; in experiment [10], 34 nM; in experiment [11] it was 171 nM. In addition, the pEC50 is 7.51 in [2]; 7.54 in [4]; 7.39 in [5]; 7.47 in experiment [6]; 6.72 in experiment [7]; 7.28 in experiment [8].
In the case of `COc1ccc(C2=Nn3c(nnc3-c3n[nH]c4c3CCC4)SC2)cc1` [Example V2], the GI50 in experiment [1] amounted to 400 nM; in experiment [3], 346 nM; in experiment [9] it was 1260 nM; in experiment [10], 975 nM; in [11], 1130 nM. Further, the pEC50 in experiment [2] was 6.71; in experiment [4], 6.59; in [5], 6.60; in experiment [6], 6.57; in experiment [7] it was 6.51; in experiment [8], 6.35.
On to `COc1ccc(C2=Nn3c(nnc3-c3ccc(Br)cc3)SC2)cc1` [Example E3], for which the GI50 came out at 33 nM in experiment [1]; 21 nM in experiment [3]; 66 nM in [9]; 47 nM in experiment [10]; 200 nM in experiment [11]. Moreover, the pEC50 was 7.07 in experiment [2]; 7.11 in [4]; 7.32 in experiment [5]; 6.80 in experiment [6]; 6.61 in [7]; 6.90 in experiment [8].
For the compound `COc1ccc(C2=Nn3c(nnc3-c3ccccc3Br)SC2)cc1` [Example D3], the 50% growth inhibitory concentration (GI50) in [1] is 44 nM; in experiment [3], 49 nM; in [9] it was 85 nM; in [10] it was 33 nM; in experiment [11], 100 nM. Besides, the pEC50 in experiment [2] is 7.21; in experiment [4], 7.12; in experiment [5], 7.27; in experiment [6], 6.84; in experiment [7], 6.48; in experiment [8], 6.94.
For the compound `COc1ccc(C2=Nn3c(nnc3-c3ccc(C)cc3)SC2)cc1` [Example U2], the GI50 in [1] was found to be 72 nM; in [3], 100 nM; in experiment [9], 730 nM; in [10] it was 256 nM; in experiment [11] it was 1100 nM. In addition, the pEC50 in [2] is 7.07; in experiment [4] it was 6.90; in experiment [5], 6.89; in experiment [6] it was 6.77; in [7] it was 6.27; in experiment [8], 6.72.
As for `COc1ccccc1-c1nnc2n1N=C(c1ccc(OCCO)cc1)CS2` [Example 10, 6-(4-(2-Hydroxyethoxy)phenyl)-3-(2-methoxyphenyl)-7H-[1,2,4]triazolo[3,4-b][1,3,4]thiadiazine], the GI50 worked out at 315 nM in [1]; 173 nM in [3]; 746 nM in [9]; 618 nM in experiment [10]; 1670 nM in experiment [11]. Also, the pEC50 in experiment [2] was 6.57; in experiment [4], 6.51; in experiment [5] it was 6.60; in experiment [6], 6.21; in experiment [7] it was 6.52; in experiment [8], 6.37.
For the compound `COc1cccc(-c2nnc3n2N=C(c2ccc(OC)c(OC)c2)CS3)c1` [Y, 3-(3-Methoxyphenyl)-6-(3,4-dimethoxyphenyl)-7H-[1,2,4]triazolo[3,4-b][1,3,4]thiadiazine], the pEC50 in experiment [2] was 5.87; in experiment [4], 6.23; in experiment [5] it was 6.25; in experiment [6] it was 5.50; in experiment [7] it was 5.38; in experiment [8], 6.13. In addition, in experiment [12], the pEC50 is 5.55.
Turning to `CCOc1ccc(-c2nnc3n2N=C(c2ccc4c(c2)OCO4)CS3)cc1` [Example H2, 3-(4-Ethoxyphenyl)-6-(3,4-methylenedioxyphenyl)-7H-[1,2,4]triazolo[3,4-b][1,3,4]thiadiazine], the pEC50 in [2] was under 6.00; in experiment [4], 6.27; in [5] it was under 6.00; in experiment [6], under 6.00; in [7] it was under 6.00; in experiment [8] it was under 6.00. In addition, the pEC50 in experiment [12] was under 6.00.
Turning to `Clc1ccc(-c2nnc3n2N=C(c2ccc4c(c2)OCO4)CS3)c(Cl)c1` [Example I1, 3-(2,4-Dichlorophenyl)-6-(3,4-methylenedioxyphenyl)-7H-[1,2,4]triazolo[3,4-b][1,3,4]thiadiazine], the pEC50 is 6.76 in experiment [2]; 6.82 in experiment [4]; 6.66 in [5]; 6.60 in experiment [6]; 6.56 in experiment [7]; 6.77 in experiment [8]. In addition, in [12], the pEC50 is 5.86.
On to `CC(C)Oc1cccc(-c2nnc3n2N=C(c2ccc4c(c2)OCO4)CS3)c1` [Example R1, 3-(3-Isopropyloxyphenyl)-6-(3,4-methylenedioxyphenyl)-7H-[1,2,4]triazolo[3,4-b][1,3,4]thiadiazine], for which the pEC50 in [2] is 5.25; in experiment [4], under 6.00; in [5], under 6.00; in experiment [6], under 5.00; in experiment [7], under 5.00; in experiment [8] it was under 6.00. The pEC50 in experiment [12] was under 5.00.

In general, GI50 refers to the concentration at which growth is held to half of that of the control. High values mean lower sensitivity of the cells, low ones greater sensitivity of the cells. The term pEC50 denotes the negative decadic logarithm of the EC50, by convention in mol/L.
